Test results taken from patent publication US10725049B2, “Methods of detecting and measuring glutamine and analogues thereof, and methods related thereto” (Victoria Link Limited, priority 2013, dated 2020).
Peptide text beside a SMILES is read from it.

What was measured:
[1] = target: T1, BpsA (Streptomyces lavendulae, UniProt Q1MWN4); assay: BpsA-mediated synthesis of indigoidine-related pigments from glutamine analogues; assay type: biochemical; conditions: 4 mM substrate, 1.66 μM BpsA, 25° C., 72 hours
Protocol: For these experiments, BpsA activation was carried out as noted in Example 1. Pre-activated BpsA was incubated at 25° C. for 72 hours in reaction buffer amended with 4 mM of either L-glutamine, L-glycine-L-glutamine (glycyl glutamine), L-alanine-L-glutamine (alanyl glutamine), N-trifluoracetyl-L-glutamine, or no substrate as a control. Pre-activated and buffered BpsA at a final concentration of 1.66 μM was added to a reaction buffer containing 4 mM of each L-glutamine derivative in a final reaction volume of 1000 μL. This was then incubated al 25° C. for 72 hours. Each reaction tube was centrifuged and the supernatant removed. The indigoidine derivatives were then resuspended in 100 μL of 99.9% DMSO to solubilise the precipitated pigment.
The structures of each substrate and the predicted structure of the cyclised indigoidine-like product potentially produced in each reaction are depicted in FIGS. […]. […] The relative absorbance levels of each reaction at the end of the 72 hour incubation period are illustrated in FIG. 8E.

[2] = target: T1, BpsA; assay: Activation of apo-BpsA to holo-BpsA by PPTase, read out as indigoidine synthesis (A590); assay type: biochemical; conditions: in vitro, purified His6-tagged PPTase
Protocol: Apo-BpsA was converted to holo-BpsA in vitro, post-purification, as follows. Purified BpsA and Sfp were obtained by standard Ni/NTA chromatography following their expression as His6-tagged recombinant polypeptides. The bpsA and sfp genes were cloned into and expressed from plasmid pET28a+ in E. coli BL21 (DE3) cells, as described for BpsA and other PPTases by Owell et al (2011), with the modification that BpsA expression and purification was performed in an entD gene-deleted strain of E.coli BL21(DE3). This was done to avoid any activation of BpsA by endogenous EntD PPTase prior to BpsA purification.
Reagents were added to a 15 ml tube. This was vortexed for two seconds and transferred to a 30° C. shaking incubator (200 rpm) for 20 minutes to enable 4′-PP attachment to occur. A negative control was set up in the same manner, omitting Sfp and adding 88.16 μL of ddH2O instead of 84.48 μL of ddH2O.
Indigoidine synthesis reactions were performed in triplicate in a 96 well plate to assess whether activated BpsA was generated. For these reactions, 50 μL of 50 mM Tris-HCl, 10 mM MgCl2 in ddH2O was added to each of six wells. […] The 96 well plate was shaken at 1000 rpm and the A590 values (absorbance at 590 nm) were recorded for each well every twenty seconds for 60 minutes. […]

T1 sequence (Q1MWN4 whole entry): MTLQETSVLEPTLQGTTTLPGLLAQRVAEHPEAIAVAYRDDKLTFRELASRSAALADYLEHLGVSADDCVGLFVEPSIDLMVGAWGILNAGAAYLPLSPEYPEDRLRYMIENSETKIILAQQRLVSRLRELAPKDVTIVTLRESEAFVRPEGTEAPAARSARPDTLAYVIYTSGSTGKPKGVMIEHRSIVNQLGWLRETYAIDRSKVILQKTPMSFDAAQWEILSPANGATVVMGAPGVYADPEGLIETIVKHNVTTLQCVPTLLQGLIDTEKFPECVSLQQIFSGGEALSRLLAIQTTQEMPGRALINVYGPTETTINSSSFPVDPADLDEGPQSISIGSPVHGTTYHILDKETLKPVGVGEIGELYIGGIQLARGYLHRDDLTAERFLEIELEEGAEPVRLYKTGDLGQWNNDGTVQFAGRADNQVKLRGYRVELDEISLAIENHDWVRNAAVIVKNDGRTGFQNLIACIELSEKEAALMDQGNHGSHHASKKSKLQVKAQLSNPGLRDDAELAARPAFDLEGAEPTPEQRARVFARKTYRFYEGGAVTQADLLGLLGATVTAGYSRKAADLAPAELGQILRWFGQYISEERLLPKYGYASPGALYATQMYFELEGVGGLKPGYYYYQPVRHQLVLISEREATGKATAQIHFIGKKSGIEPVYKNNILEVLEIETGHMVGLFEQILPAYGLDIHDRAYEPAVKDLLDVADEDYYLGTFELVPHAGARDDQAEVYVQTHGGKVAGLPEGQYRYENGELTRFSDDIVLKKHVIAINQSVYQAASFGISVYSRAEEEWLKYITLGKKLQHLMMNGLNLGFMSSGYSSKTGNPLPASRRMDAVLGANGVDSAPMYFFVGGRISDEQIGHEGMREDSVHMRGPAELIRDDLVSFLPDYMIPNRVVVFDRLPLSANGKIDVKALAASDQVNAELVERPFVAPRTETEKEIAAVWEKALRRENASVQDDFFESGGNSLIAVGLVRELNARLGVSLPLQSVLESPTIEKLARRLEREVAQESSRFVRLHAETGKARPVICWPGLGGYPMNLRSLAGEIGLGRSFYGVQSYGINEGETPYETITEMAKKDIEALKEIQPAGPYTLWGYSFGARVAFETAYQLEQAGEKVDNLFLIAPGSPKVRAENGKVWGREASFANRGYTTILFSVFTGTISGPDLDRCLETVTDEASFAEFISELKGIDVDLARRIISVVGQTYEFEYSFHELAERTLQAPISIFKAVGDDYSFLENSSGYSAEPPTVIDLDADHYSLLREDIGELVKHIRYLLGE

**Q.** How did the “Pigment formation by pre-activated BpsA from the substrate” value (from here on “Pigment formation by pre-activated BpsA”) [1] turn out when `NCC(=O)N[C@@H](CCC(N)=O)C(=O)O` [glycyl-glutamine, L-glycine-L-glutamine] (H-Gly-Gln-OH) was run?
**A.** used to produce indigoidine-like pigments

**Q.** Which “Pigment formation by pre-activated BpsA” value [1] does the source give for `NC(=O)CC[C@H](NC(=O)C(F)(F)F)C(=O)O` [N-trifluoroacetyl-L-glutamine] here?
**A.** used to produce indigoidine-like pigments

**Q.** How did the “Pigment formation by pre-activated BpsA” value [1] turn out when `C[C@H](N)C(=O)N[C@@H](CCC(N)=O)C(=O)O` [alanyl glutamine, L-alanine-L-glutamine] (H-Ala-Gln-OH) was run?
**A.** used to produce indigoidine-like pigments

B1: PptT: PPTase from Mycobacterium tuberculosis (protein)
chain: MTVGTLVASVLPATVFEDLAYAELYSDPPGLTPLPEEAPLIARSVAKRRNEFITVRHCARIALDQLGVPPAPILKGDKGEPCWPDGMVGSLTHCAGYRGAVVGRRDAVRSVGIDAEPHDVLPNGVLDAISLPAERADMPRTMPAALHWDRILFCAKEATYKAWFPLTKRWLGFEDAHITFETDSTGWTGRFVSRILIDGSTLSGPPLTTLRGRWSVERGLVLTAIVL
modifications: left off: small tags and cut ends
notes: PPTase from Mycobacterium tuberculosis
**Q.** With B1 as the molecule, how does the “Ability of PPTase to activate BpsA” value [2] read?
**A.** similarly able to activate BpsA

B2: Sfp: PPTase from Bacillus subtilis (protein)
chain: MKIYGIYMDRPLSQEENERFMSFISPEKREKCRRFYHKEDAHRTLLGDVLVRSVISRQYQLDKSDIRFSTQEYGKPCIPDLPDAHFNISHSGRWVICAFDSQPIGIDIEKTKPISLEIAKRFFSKTEYSDLLAKDKDEQTDYFYHLWSMKESFIKQEGKGLSLPLDSFSVRLHQDGQVSIELPDSHSPCYIKTYEVDPGYKMAVCAAHPDFPEDITMVSYEELL
modifications: left off: small tags and cut ends
notes: PPTase from Bacillus subtilis
**Q.** How did the “Ability of PPTase to activate BpsA” value [2] turn out when B2 was run?
**A.** effective means of pre-activating BpsA
